Measured values published in article PMC8457007 (RNA, 2021).

Target: CPSF73 (Homo sapiens, UniProt Q9UKF6)
Assay: gel-based end-point fluorescence nuclease assay with reconstituted U7 machinery
Type: biochemical

O=C(O)CCc1cccc2c1B(O)OC2 [AN3661]
IC50: 0.85 µM
